Data as given in patent US8415469B2, “Compounds and methods for kinase modulation, and indications therefor” (Plexxikon Inc., priority 2005, dated 2013).

What was measured:
Format in all cases: biochemical
[1] = molecular target: T1, B-Raf (Homo sapiens, UniProt P15056); test: AlphaScreen kinase assay, B-Raf; conditions: read-out: IC50, activity toward kinase B-Raf
T1 construct: purchased Upstate Biotechnology

[2] = molecular target: T2, FGFR1 (Homo sapiens, UniProt P11362, C488A/C584S); test: AlphaScreen kinase assay, FGFR1; conditions: read-out: IC50, activity toward kinase FGFR
T2 construct: P1351.pET N6 BI-PTP FGFR A458-E765-X C488A, C584S; made in house; host or cells: E. coli (PTP1B co-expressed)
T2 sequence (P11362 458-765 C488A/C584S): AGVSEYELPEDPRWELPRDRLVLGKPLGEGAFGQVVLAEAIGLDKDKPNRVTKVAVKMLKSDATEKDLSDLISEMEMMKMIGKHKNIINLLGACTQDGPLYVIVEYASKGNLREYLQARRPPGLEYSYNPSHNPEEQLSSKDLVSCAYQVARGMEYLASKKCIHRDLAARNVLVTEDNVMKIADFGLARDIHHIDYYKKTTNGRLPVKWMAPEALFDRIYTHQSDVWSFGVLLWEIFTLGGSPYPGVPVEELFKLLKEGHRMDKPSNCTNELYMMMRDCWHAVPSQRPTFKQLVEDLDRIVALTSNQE

[3] = molecular target: T3, Flt1 (Homo sapiens, UniProt P17948); test: AlphaScreen kinase assay, Flt1; conditions: read-out: IC50, activity toward kinase Flt1
T3 construct: P1826.pETN6 BI-PTP FLT1 M799-D1165-X WT; His6 (N); made in house; host or cells: E. coli (PTP1B co-expressed)
T3 sequence (P17948 with tags, fused parts or gaps): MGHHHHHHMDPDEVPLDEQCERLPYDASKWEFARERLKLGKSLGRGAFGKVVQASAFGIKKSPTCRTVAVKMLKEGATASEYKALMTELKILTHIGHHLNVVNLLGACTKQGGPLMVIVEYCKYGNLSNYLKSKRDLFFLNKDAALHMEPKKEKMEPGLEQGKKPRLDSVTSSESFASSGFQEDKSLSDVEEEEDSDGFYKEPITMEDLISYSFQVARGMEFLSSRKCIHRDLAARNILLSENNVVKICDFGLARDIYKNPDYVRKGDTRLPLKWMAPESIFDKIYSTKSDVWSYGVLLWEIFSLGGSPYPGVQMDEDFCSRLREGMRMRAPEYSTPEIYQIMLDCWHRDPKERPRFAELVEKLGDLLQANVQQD

[4] = molecular target: T4, Fms (Homo sapiens, UniProt P07333); test: AlphaScreen kinase assay, Fms; conditions: read-out: IC50, activity toward kinase Fms
T4 construct: purchased Upstate Biotechnology
T4 sequence (P07333 20-972): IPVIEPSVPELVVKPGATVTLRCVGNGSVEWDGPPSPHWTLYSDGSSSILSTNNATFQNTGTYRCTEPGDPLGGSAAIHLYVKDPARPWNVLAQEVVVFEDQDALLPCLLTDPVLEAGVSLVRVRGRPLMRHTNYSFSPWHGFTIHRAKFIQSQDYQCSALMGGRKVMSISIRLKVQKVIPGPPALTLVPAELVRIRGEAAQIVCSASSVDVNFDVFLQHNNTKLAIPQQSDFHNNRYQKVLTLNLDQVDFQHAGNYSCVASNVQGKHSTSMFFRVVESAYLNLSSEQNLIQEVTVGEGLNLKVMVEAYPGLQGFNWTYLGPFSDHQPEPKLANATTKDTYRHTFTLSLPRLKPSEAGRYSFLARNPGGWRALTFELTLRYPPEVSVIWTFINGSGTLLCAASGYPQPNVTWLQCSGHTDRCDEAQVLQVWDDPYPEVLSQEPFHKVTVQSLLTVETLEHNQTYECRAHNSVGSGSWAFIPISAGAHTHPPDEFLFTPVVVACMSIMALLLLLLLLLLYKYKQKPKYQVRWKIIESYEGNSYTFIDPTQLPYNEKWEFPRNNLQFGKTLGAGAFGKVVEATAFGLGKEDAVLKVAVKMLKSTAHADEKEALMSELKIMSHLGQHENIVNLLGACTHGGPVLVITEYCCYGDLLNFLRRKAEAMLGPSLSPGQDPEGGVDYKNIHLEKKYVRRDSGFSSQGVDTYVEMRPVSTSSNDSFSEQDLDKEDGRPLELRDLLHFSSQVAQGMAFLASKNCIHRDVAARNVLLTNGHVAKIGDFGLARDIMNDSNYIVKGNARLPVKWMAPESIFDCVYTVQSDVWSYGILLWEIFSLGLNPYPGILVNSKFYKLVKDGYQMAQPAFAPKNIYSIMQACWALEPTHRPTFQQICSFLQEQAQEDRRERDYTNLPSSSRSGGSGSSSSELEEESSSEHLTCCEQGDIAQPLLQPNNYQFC

[5] = molecular target: T5, B-Raf V600E (Homo sapiens, UniProt P15056, V600E); test: AlphaScreen kinase assay, B-Raf V600E; conditions: read-out: IC50, activity toward kinase B-Raf V600E
T5 construct: P4254. pFastBacBD-CDC37 BRAF D437-K722-X, V600E; His6 with pFastBac HT leader (TEV site) (N); made in house; host or cells: Sf9 (baculovirus; chaperone CDC37 co-expressed)
T5 sequence (P15056 with tags, fused parts or gaps V600E): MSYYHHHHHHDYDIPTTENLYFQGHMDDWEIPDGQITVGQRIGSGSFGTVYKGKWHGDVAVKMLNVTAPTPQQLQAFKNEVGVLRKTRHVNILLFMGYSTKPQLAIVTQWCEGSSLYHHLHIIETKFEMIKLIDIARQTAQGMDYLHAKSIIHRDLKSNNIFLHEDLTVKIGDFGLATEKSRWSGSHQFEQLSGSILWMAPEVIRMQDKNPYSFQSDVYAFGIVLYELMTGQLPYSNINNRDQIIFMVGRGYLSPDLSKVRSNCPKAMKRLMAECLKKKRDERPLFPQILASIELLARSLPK

[6] = molecular target: T6, Kit (Homo sapiens, UniProt P10721); test: AlphaScreen kinase assay, Kit; conditions: read-out: IC50, activity toward kinase Kit
T6 construct: P1332.N6 BI PTP KIT M552-K948-X COD; His6 (N); made in house; host or cells: E. coli (PTP1B co-expressed)
T6 sequence (P10721 with tags, fused parts or gaps): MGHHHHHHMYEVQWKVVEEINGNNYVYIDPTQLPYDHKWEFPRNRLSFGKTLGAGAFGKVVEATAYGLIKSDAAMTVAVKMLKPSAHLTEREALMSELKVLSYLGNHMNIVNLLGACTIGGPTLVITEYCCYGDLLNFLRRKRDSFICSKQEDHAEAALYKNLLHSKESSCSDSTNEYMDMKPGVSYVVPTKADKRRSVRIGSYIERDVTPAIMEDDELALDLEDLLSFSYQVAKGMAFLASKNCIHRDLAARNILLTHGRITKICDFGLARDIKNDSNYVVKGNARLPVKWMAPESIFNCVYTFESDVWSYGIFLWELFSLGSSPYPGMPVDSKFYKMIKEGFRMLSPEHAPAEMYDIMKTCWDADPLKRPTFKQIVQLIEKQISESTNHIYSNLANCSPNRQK

T1 sequence (P15056 whole entry): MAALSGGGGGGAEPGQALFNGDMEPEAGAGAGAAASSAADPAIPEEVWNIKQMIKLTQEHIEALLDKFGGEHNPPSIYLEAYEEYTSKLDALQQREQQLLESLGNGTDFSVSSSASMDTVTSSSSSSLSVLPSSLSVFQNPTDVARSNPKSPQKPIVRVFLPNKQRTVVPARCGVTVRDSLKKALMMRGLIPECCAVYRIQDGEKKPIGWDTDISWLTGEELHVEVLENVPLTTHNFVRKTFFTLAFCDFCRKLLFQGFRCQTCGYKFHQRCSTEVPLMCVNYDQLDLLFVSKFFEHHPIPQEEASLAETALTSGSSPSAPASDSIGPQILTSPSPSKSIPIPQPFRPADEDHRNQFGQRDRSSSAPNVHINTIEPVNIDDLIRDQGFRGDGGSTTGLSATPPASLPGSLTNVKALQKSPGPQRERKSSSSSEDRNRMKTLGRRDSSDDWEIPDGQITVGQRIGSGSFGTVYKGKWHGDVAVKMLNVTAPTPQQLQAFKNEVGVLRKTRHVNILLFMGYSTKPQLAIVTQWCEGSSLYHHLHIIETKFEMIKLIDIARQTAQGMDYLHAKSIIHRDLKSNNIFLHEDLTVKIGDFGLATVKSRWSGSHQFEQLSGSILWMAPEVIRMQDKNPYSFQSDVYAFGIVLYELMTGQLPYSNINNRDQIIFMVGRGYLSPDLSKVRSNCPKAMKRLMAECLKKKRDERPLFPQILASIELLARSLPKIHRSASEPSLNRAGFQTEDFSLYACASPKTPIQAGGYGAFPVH

SMILES | IC50 [1] | IC50 [2] | IC50 [3] | IC50 [4] | IC50 [5] | IC50 [6]
COc1ccnc2[nH]cc(Cc3ccc(NCc4ccc(C(F)(F)F)cc4)nc3)c12 [Compound P-1110] | ≤ 10 µM | ≤ 10 µM | ≤ 10 µM | ≤ 10 µM |  | 
CC(C)(C)OC(=O)N(Cc1ccc(Cl)cc1)c1ccc(C(=O)c2c[nH]c3ncccc23)cn1 [Compound P-1194] |  | ≤ 10 µM | ≤ 10 µM | ≤ 10 µM | ≤ 10 µM | ≤ 10 µM
O=C(c1c(F)ccc(OC(F)F)c1F)c1c[nH]c2ncc(Br)cc12 [Compound P-1526, (5-Bromo-1H-pyrrolo[2,3-b]pyridin-3-yl)-(3-difluoromethoxy-2,6-difluoro-phenyl)-methanone] | ≤ 10 µM | ≤ 10 µM | ≤ 10 µM | ≤ 10 µM | ≤ 10 µM | ≤ 10 µM
CCCS(=O)(=O)Nc1ccc(F)c(C(=O)c2c[nH]c3ncc(C(=O)OC)cc23)c1F [Compound P-1552, 3-[2,6-difluoro-3-(propane-1-sulfonylamino)-benzoyl]-1H-pyrrolo[2,3-b]pyridine-5-carboxylic acid methyl ester] | ≤ 10 µM |  | ≤ 10 µM | ≤ 10 µM | ≤ 10 µM | ≤ 10 µM
CCCS(=O)(=O)Nc1ccc(F)c(C(=O)c2c[nH]c3ncc(C(=O)O)cc23)c1F [Compound P-1559, 3-[2,6-difluoro-3-(propane-1-sulfonylamino)-benzoyl]-1H-pyrrolo[2,3-b]pyridine-5-carboxylic acid] | ≤ 10 µM |  | ≤ 10 µM | ≤ 10 µM | ≤ 10 µM | ≤ 10 µM
O=C(NCCN1CCOCC1)Nc1ccc(F)c(C(=O)c2c[nH]c3ncc(Cl)cc23)c1F [Compound P-1580, 1-[3-(5-Chloro-1H-pyrrolo[2,3-b]pyridine-3-carbonyl)-2,4-difluoro-phenyl]-3-(2-morpholin-4-yl-ethyl)-urea] | ≤ 10 µM |  | ≤ 10 µM | ≤ 10 µM |  | ≤ 10 µM
CCCCNC(=O)Nc1ccc(F)c(C(=O)c2c[nH]c3ncc(Cl)cc23)c1F [Compound P-1586, 1-Butyl-3-[3-(5-chloro-1H-pyrrolo[2,3-b]pyridine-3-carbonyl)-2,4-difluoro-phenyl]-urea] | ≤ 10 µM |  | ≤ 10 µM | ≤ 10 µM | ≤ 10 µM | 
COc1cnc2[nH]cc(Cc3c(F)ccc(NS(=O)(=O)c4cccc(C(F)(F)F)c4)c3F)c2c1 [Compound P-1590, N-[2,4-Difluoro-3-(5-methoxy-1H-pyrrolo[2,3-b]pyridin-3-ylmethyl)-phenyl]-3-trifluoromethyl-benzenesulfonamide] | ≤ 10 µM |  | ≤ 10 µM |  | ≤ 10 µM | ≤ 10 µM
O=C(c1c(F)ccc(NS(=O)(=O)c2cccc(C(F)(F)F)c2)c1F)c1c[nH]c2ncc(Cl)cc12 [Compound P-1599, N-[3-(5-Chloro-1H-pyrrolo[2,3-b]pyridine-3-carbonyl)-2,4-difluoro-phenyl]-3-trifluoromethyl-benzenesulfonamide] | ≤ 10 µM |  | ≤ 10 µM | ≤ 10 µM | ≤ 10 µM | ≤ 10 µM
O=S(=O)(Nc1ccc(F)c(Cc2c[nH]c3ncc(Cl)cc23)c1F)c1cccc(C(F)(F)F)c1 [Compound P-1600, N-[2,4-Difluoro-3-(5-chloro-1H-pyrrolo[2,3-b]pyridin-3-ylmethyl)-phenyl]-3-trifluoromethyl-benzenesulfonamide] | ≤ 10 µM |  | ≤ 10 µM |  | ≤ 10 µM | 
CCCS(=O)(=O)Nc1cccc(C(=O)c2c[nH]c3ncc(Br)cc23)c1C [Compound P-1608] | ≤ 10 µM | ≤ 10 µM | ≤ 10 µM | ≤ 10 µM | ≤ 10 µM | 
Cc1c(NS(=O)(=O)N(C)C)cccc1C(=O)c1c[nH]c2ncc(Br)cc12 [Compound P-1609] | ≤ 10 µM | ≤ 10 µM | ≤ 10 µM | ≤ 10 µM | ≤ 10 µM | 
CCCCN(C)C(=O)Nc1ccc(F)c(C(=O)c2c[nH]c3ncc(Cl)cc23)c1F [Compound P-1612, 1-Butyl-3-[3-(5-chloro-1H-pyrrolo[2,3-b]pyridine-3-carbonyl)-2,4-difluoro-phenyl]-1-methyl-urea] | ≤ 10 µM |  | ≤ 10 µM | ≤ 10 µM | ≤ 10 µM | 

Continued, values first:

IC50 [1] | IC50 [2] | IC50 [3] | IC50 [4] | IC50 [5] | IC50 [6] | SMILES
≤ 10 µM | ≤ 10 µM | ≤ 10 µM | ≤ 10 µM | ≤ 10 µM | ≤ 10 µM | CCCS(=O)(=O)Nc1ccc(F)c(C(=O)c2c[nH]c3ncc(-c4cccc(F)c4)cc23)c1F [Compound P-1259, Propane-1-sulfonic acid {2,4-difluoro-3-[5-(3-fluoro-phenyl)-1H-pyrrolo[2,3-b]pyridine-3-carbonyl]-phenyl}-amide]
 | ≤ 10 µM | ≤ 10 µM | ≤ 10 µM | ≤ 10 µM | ≤ 10 µM | CC(=O)Nc1cccc(-c2cnc3[nH]cc(C(=O)c4cc(Cl)cc(Cl)c4)c3c2)c1 [Compound P-1423, N-{3-[3-(3,5-Dichloro-benzoyl)-1H-pyrrolo[2,3-b]pyridin-5-yl]-phenyl}-acetamide]
≤ 10 µM | ≤ 10 µM | ≤ 10 µM | ≤ 10 µM | ≤ 10 µM | ≤ 10 µM | CS(=O)(=O)Nc1cccc(-c2cnc3[nH]cc(C(=O)c4cccc(OC(F)F)c4)c3c2)c1 [Compound P-1430, N-{3-[3-(3-Difluoromethoxy-benzoyl)-1H-pyrrolo[2,3-b]pyridin-5-yl]-phenyl}-methanesulfonamide]
≤ 10 µM | ≤ 10 µM | ≤ 10 µM | ≤ 10 µM | ≤ 10 µM | ≤ 10 µM | O=C(c1c(F)ccc(OC(F)F)c1F)c1c[nH]c2ncc(-c3cccnc3)cc12 [Compound P-1528, (3-Difluoromethoxy-2,6-difluoro-phenyl)-(5-pyridin-3-yl-1H-pyrrolo[2,3-b]pyridin-3-yl)-methanone]
 | ≤ 10 µM | ≤ 10 µM | ≤ 10 µM | ≤ 10 µM | ≤ 10 µM | CS(=O)(=O)Nc1cccc(-c2cnc3[nH]cc(C(=O)c4ccc5c(c4)OC(F)(F)O5)c3c2)c1 [Compound P-1564, N-{3-[3-(2,2-Difluoro-benzo[1,3]dioxole-5-carbonyl)-1H-pyrrolo[2,3-b]pyridin-5-yl]-phenyl}-methanesulfonamide]
≤ 10 µM | ≤ 10 µM | ≤ 10 µM |  | ≤ 10 µM | ≤ 10 µM | COc1cnc2[nH]cc(C(=O)c3c(F)ccc(NS(=O)(=O)c4ccc(F)cc4)c3F)c2c1 [Compound P-1582, N-[2,4-Difluoro-3-(5-methoxy-1H-pyrrolo[2,3-b]pyridine-3-carbonyl)-phenyl]-4-fluoro-benzenesulfonamide]
≤ 10 µM | ≤ 10 µM | ≤ 10 µM |  |  | ≤ 10 µM | Nc1cccc(C(=O)c2c[nH]c3ncc(-c4cccc(OC(F)(F)F)c4)cc23)c1 [Compound P-1593]
≤ 10 µM |  | ≤ 10 µM | ≤ 10 µM | ≤ 10 µM | ≤ 10 µM | COc1cnc2[nH]cc(C(=O)c3c(F)ccc(NS(=O)(=O)c4cccc(C(F)(F)F)c4)c3F)c2c1 [Compound P-1598, N-[2,4-Difluoro-3-(5-methoxy-1H-pyrrolo[2,3-b]pyridine-3-carbonyl)-phenyl]-3-trifluoromethyl-benzenesulfonamide]
≤ 10 µM | ≤ 10 µM | ≤ 10 µM |  | ≤ 10 µM | ≤ 10 µM | CS(=O)(=O)Nc1ccc(F)c(Cc2c[nH]c3ncc(-c4cccnc4)cc23)c1F [Compound P-1605, N-[2,4-Difluoro-3-(5-pyridin-3-yl-1H-pyrrolo[2,3-b]pyridin-3-ylmethyl)-phenyl]-methanesulfonamide]
